Test results published in patent publication US6194441A, “Oxazolidinone derivatives and their use as antibacterial agents” (Zeneca Ltd., priority 1997, dated 2001).
Values after ≈ are worked out from the molar mass of the structure shown. Where a name gives a salt, the structure may show the parent alone.

Experiments:
[1] = Solubility in water; assay type: physicochemical; settings: dihydrochloride salt
[2] = tested on: Coagulase Negative Staphylococci MS; experiment: MIC by agar-dilution technique, coagulase negative staphylococci MS; assay type: cell-based; settings: IsoSensitest agar, inoculum 10^4 CFU/spot, 37° C., 24 hours, methicillin sensitive
Method: (§1) The following results were obtained on a standard in vitro test system. The activity is described in terms of the minimum inhibitory concentration (MIC) determined by the agar-dilution technique with an inoculum size of 10^4 CFU/spot.
(§2) The organisms were tested on a standard semi-defined susceptability test medium (IsoSensitest agar), using an inoculum of 10^4 CFU/spot and an incubation temperature of 37° C. for 24 hours. Typically, compounds are active in the range 0.01 to 128 μg/ml.

[3] = tested on: Streptococcus pyogenes C203; experiment: MIC by agar-dilution technique, S. pyogenes C203; assay type: cell-based; settings: IsoSensitest agar, inoculum 10^4 CFU/spot, 37° C., 24 hours
Method: as §1, §2

[4] = tested on: Enterococcus faecalis; experiment: MIC by agar-dilution technique, E. faecalis; assay type: cell-based; settings: IsoSensitest agar, inoculum 10^4 CFU/spot, 37° C., 24 hours
Method: as §1, §2

[5] = tested on: Staphylococcus aureus Oxford; experiment: MIC by agar-dilution technique, S. aureus Oxford; assay type: cell-based; settings: IsoSensitest agar, inoculum 10^4 CFU/spot, 37° C., 24 hours, Oxford strain
Method: as §1, §2

[6] = tested on: Staphylococcus aureus Novb. Res.; experiment: MIC by agar-dilution technique, S. aureus novobiocin resistant; assay type: cell-based; settings: 24 h
Method: as §1, §2

[7] = tested on: Staphylococcus aureus MRQR; experiment: MIC by agar-dilution technique, S. aureus MRQR; assay type: cell-based; settings: IsoSensitest agar, inoculum 10^4 CFU/spot, 37° C., 24 hours, methicillin resistant quinolone resistant
Method: as §1, §2

[8] = tested on: Coagulase Negative Staphylococci MR; experiment: MIC by agar-dilution technique, coagulase negative staphylococci MR; assay type: cell-based; settings: IsoSensitest agar, inoculum 10^4 CFU/spot, 37° C., 24 hours, methicillin resistant
Method: as §1, §2

[9] = tested on: Bacillus subtilis; experiment: MIC by agar-dilution technique, B. subtilis; assay type: cell-based; settings: IsoSensitest agar, inoculum 10^4 CFU/spot, 37° C., 24 hours
Method: as §1, §2

`CC(=O)NC[C@H]1CN(c2ccc(-n3cnc(/C=C/c4ccccn4)c3)c(F)c2)C(=O)O1` [Example 11 dihydrochloride salt, N-[(5S)-3-(3-Fluoro-4-(4-(E-2-(Pyrid-2-yl)ethenyl)imidazol-1-yl)phenyl)-2-oxooxazolidin-5-ylmethyl]acetamide] showed a solubility [1] of about 10000 µg/mL.
`CC(=O)NC[C@H]1CN(c2ccc(-n3cnc(C=CC#N)c3)c(F)c2)C(=O)O1` [Example 2] gave an MIC [2] of 0.06 µg/mL (≈ 0.162 µM), an MIC [3] of 0.125 µg/mL (≈ 0.338 µM) and an MIC [4] of 0.25 µg/mL (≈ 0.677 µM). It also gave an MIC [5] of 0.125 µg/mL (≈ 0.338 µM), an MIC [6] of 0.25 µg/mL (≈ 0.677 µM) and an MIC [7] of 1 µg/mL (≈ 2.71 µM). It also gave an MIC [8] of 0.25 µg/mL (≈ 0.677 µM) and an MIC [9] of 0.25 µg/mL (≈ 0.677 µM).
